Patent publication US6191124A, “Methanol derivatives for treatment of retroviral infections especially HIV infections” (priority 1997, dated 2001)
Where two headings read alike, the source gives them in different places.

Molecular target: HIV-1 protease (Human immunodeficiency virus type 1 group M subtype B, UniProt P04585)
Assay: HIV protease screening assay (fluorescently labeled biotinylated substrate, streptavidin beads), percent inhibition
Assay type: biochemical
Experimental: The HIV protease screening assay is based on fluorescently labeled substrate which can be resolved from nonlabeled cleavage product using special beads coated with streptavidin. The substrate is biotinylated at the amino terminal arginine and fluorescently labeled with fluorescein isothiocynate (FITC) at the carboxyl terminal lysine. This assay has been employed to detect novel, nonpeptidic inhibitors of HIV-1 protease. Substrate (20 μl of 0.2 μM), sample (10 μl of desired concentration), and enzyme (10 μl of 0.1 μM) are added to a 96 well pandex plate. The assay is run in 0.1 M sodium acetate buffer at pH 5.5 in the presence of 1.0 M sodium chloride and 0.05% NP-40 with incubated in the dark for one hour at room temperature. Strepavidin coated polystyrene beads {40 μl of 0.1% (w/v)} are added and the plate is incubated in the dark for an additional half hour. The labeled cleavage product is separated from the unreacted substrate via filtration and is read on the Idexx screen machine. The data are analyzed by appropriate computer algorithms to ascertain percent inhibition values.

[1] = 10 μM (Table 1), read-out: % Protease Inhibition
[2] = 10 μM (Table 3), read-out: % Protease Inhibition
[3] = 10 μM (Table 2), read-out: % Protease Inhibition
[4] = 3.3 μM (Table 5), read-out: % HIV Protease Inhibition
[5] = 10 μM (Table 5), read-out: % HIV Protease Inhibition
[6] = 1.1 μM (Table 7), read-out: PROTEASE INHIBITION
[7] = 3.3 μM (Table 7), read-out: PROTEASE INHIBITION
[8] = 10 μM (Table 7), read-out: PROTEASE INHIBITION
[9] = 1.1 μM (Table 6), read-out: PROTEASE INHIBITION
[10] = 3.3 μM (Table 6), read-out: PROTEASE INHIBITION
[11] = 1.1 μM (Table 8), read-out: PROTEASE INHIBITION
[12] = 3.3 μM (Table 8), read-out: PROTEASE INHIBITION
[13] = 10 μM (Table 8), read-out: PROTEASE INHIBITION

Cc1sc2ncc(C(O)C#Cc3ccccc3)n2c1C (stereo not drawn) [Example 1, 2,3-Dimethyl-α-(2-phenylethynyl)imidazo-[2,1-b]thiazole-5-methanol]
inhibition at 10 µM [1]: 16%
% Protease Inhibition (3.3-3.7 μM (Table 1)): < 10%

Cc1sc2ncc(C(O)Cc3ccccc3)n2c1C (stereo not drawn) [Example 2, 2,3-Dimethyl-α-(2-phenylmethyl)imidazo-[2,1-b]thiazole-5-methanol]
inhibition at 10 µM [1]: 86%
% Protease Inhibition (1.1-1.3 μM (Table 1)): < 10%
% Protease Inhibition (3.3-3.7 μM (Table 1)): 27%

Cc1csc2ncc(C(C)(O)/C=C/c3ccccc3)n12 (stereo not drawn) [Example 5, α,3-Dimethyl-α-(E-2-phenyl-E-ethenyl)imidazo[2,1-b]thiazole-5-methanol]
inhibition at 10 µM [2]: < 10%
inhibition at 30 µM (30 μM (Table 3 footnote)): 48.9%
% Protease Inhibition (1-1.2 μM (Table 3)): < 10%
% Protease Inhibition (3.3-3.7 μM (Table 3)): < 10%

Cc1csc2ncc(C(O)CC(C)c3ccccc3)n12 (stereo not drawn) [Example 6, 3-Methyl-α-(2-phenylpropyl)imidazo[2,1-b]thiazole-5-methanol]
inhibition at 10 µM [3]: 51%
% Protease Inhibition (1.1-1.3 μM (Table 2)): < 10%
% Protease Inhibition (3.3-3.7 μM (Table 2)): < 10%

Cc1csc2ncc(C(C)(O)CCc3ccccc3)n12 (stereo not drawn) [Example 7, α,3-Dimethyl-α-(2-phenylethyl)imidazo[2,1-b]thiazole-5-methanol]
inhibition at 10 µM [2]: 14.5%
% Protease Inhibition (1-1.2 μM (Table 3)): < 10%
% Protease Inhibition (3.3-3.7 μM (Table 3)): < 10%

Cc1csc2ncc(C(O)CCc3ccccc3)n12 (stereo not drawn) [Example 8, 3-Methyl-α-(2-phenylethyl)imidazo[2,1-b]thiazole-5-methanol]
inhibition at 10 µM [3]: 79%
% Protease Inhibition (1.1-1.3 μM (Table 2)): < 10%
% Protease Inhibition (3.3-3.7 μM (Table 2)): 32%

Cc1csc2ncc(C(O)CCc3ccc(Br)cc3)n12 (stereo not drawn) [Example 9, 3-Methyl-α-(4-bromophenylethyl)imidazo[2,1-b]thiazole-5-methanol]
inhibition at 10 µM [3]: 83%
% Protease Inhibition (1.1-1.3 μM (Table 2)): < 10%
% Protease Inhibition (3.3-3.7 μM (Table 2)): 22%

Cc1csc2ncc(C(O)CCCCc3ccccc3)n12 (stereo not drawn) [Example 10, 3-Methyl-α-(4-phenylbutyl)imidazo-[2,1-b]thiazole-5-methanol]
inhibition at 10 µM [3]: 58%
% Protease Inhibition (1.1-1.3 μM (Table 2)): < 10%
% Protease Inhibition (3.3-3.7 μM (Table 2)): 12%

OC(CCc1ccccc1)c1cnc2sc3c(n12)CCC3 (stereo not drawn) [Example 13, 6,7-Dihydro-α-(2-phenylethyl)-5H-cyclopent[d]imidazo[2,1-b]thiazole-3-methanol]
inhibition at 1.1 µM (1.1 μM (Table 4), read-out: Protease Inhibition, % Inhibition): 39%

OC(CCc1ccccc1)c1cnc2sc3ccccc3n12 (stereo not drawn) [Example 18, α-(2-phenylethyl)-imidazo[2,1-b]benzothiazole-3-methanol]
inhibition at 3.3 µM [4]: 28%
inhibition at 10 µM [5]: 94%

Cc1ccc2c(c1)sc1ncc(C(O)CCc3ccccc3)n12 (stereo not drawn) [Example 19, 7-Methyl-α-(2-phenylethyl)imidazo[2,1-b]benzothiazole-3-methanol]
inhibition at 3.3 µM [4]: 59%
inhibition at 10 µM [5]: 92%

OC(CCc1ccccc1)c1cnc2sc3cc(F)ccc3n12 (stereo not drawn) [Example 20, 7-Fluoro-α-(2-phenylethyl)imidazo[2,1-b]benzothiazole-3-methanol]
inhibition at 3.3 µM [4]: 43%
inhibition at 10 µM [5]: 88%

COc1ccc2c(c1)sc1ncc(C(O)CCc3ccccc3)n12 (stereo not drawn) [Example 21, 7-Methoxy-α-(2-phenylethyl)imidazo[2,1-b]benzothiazole-3-methanol]
inhibition at 3.3 µM [4]: 80%
inhibition at 10 µM [5]: 93%

OC(/C=C/c1cccc(F)c1)c1cnc2sc3c(n12)CCCCC3 (stereo not drawn) [Example 22, α-[2-(3-Fluorophenyl)ethenyl]-6,7,8,9-tetrahydro-5H-imidazo[2,1-b]thiazole-3-methanol]
inhibition at 1.1 µM [6]: 24%
inhibition at 3.3 µM [7]: 57%
inhibition at 10 µM [8]: 66%

OC(CCc1cccc(F)c1)c1cnc2sc3c(n12)CCCCC3 (stereo not drawn) [Example 23, α-[2-(3-Fluorophenyl)ethyl]-6,7,8,9-tetrahydro-5H-cyclohept[d]imidazo[2,1-b]thiazol-3-methanol]
inhibition at 1.1 µM [9]: 35%
inhibition at 3.3 µM [10]: 64%

OC(CCc1ccc(F)cc1)c1cnc2sc3c(n12)CCCCC3 (stereo not drawn) [Example 24, α-[2-(4-Fluorophenyl)ethyl]-6,7,8,9-tetrahydro-5H-cyclohept[d]imidazo[2,1-b]thiazol-3-methanol]
inhibition at 1.1 µM [9]: 53%
inhibition at 3.3 µM [10]: 77%

OC(/C=C/c1ccc(F)cc1)c1cnc2sc3c(n12)CCCCC3 (stereo not drawn) [Example 25, α-[2-(4-Fluorophenyl)ethenyl]-6,7,8,9-tetrahydro-5H-cyclohept[d]imidazo[2,1-b]thiazol-3-methanol]
inhibition at 1.1 µM [6]: 23%
inhibition at 3.3 µM [7]: 33%
inhibition at 10 µM [8]: 21%

OC(CCc1cccc(Br)c1)c1cnc2sc3c(n12)CCCCC3 (stereo not drawn) [Example 26, α-[2-(3-Bromophenyl)ethyl]-6,7,8,9-tetrahydro-5H-cyclohept[d]imidazo-[2,1-b]thiazol-3-methanol]
inhibition at 1.1 µM [9]: 4.8%
inhibition at 3.3 µM [10]: 80%

OC(CCc1cccc(Cl)c1)c1cnc2sc3c(n12)CCCCC3 (stereo not drawn) [Example 27, α-[2-(3-Chlorophenyl)ethyl]-6,7,8,9-tetrahydro-5H-cyclohept[d]imidazo[2,1-b]thiazol-3-methanol]
inhibition at 1.1 µM [9]: 55%
inhibition at 3.3 µM [10]: 98%

OC(CCc1cc(F)cc(F)c1)c1cnc2sc3c(n12)CCCCC3 (stereo not drawn) [Example 28, α-[2-(3,5-Difluorophenyl)ethyl]-1-6,7,8,9-tetrahydro-5H-cyclohept[d]-imidazothiazol-3-methanol]
inhibition at 1.1 µM [9]: 64%
inhibition at 3.3 µM [10]: 88%

CN(C)c1ccc(CCC(O)c2cnc3sc4c(n23)CCCCC4)cc1 (centres unmarked) [Example 29]
inhibition at 1.1 µM [9]: 24%
inhibition at 3.3 µM [10]: 70%

CN(C)c1ccc(/C=C/C(O)c2cnc3sc4c(n23)CCCCC4)cc1 (stereo not drawn) [Example 30, α-[2-(4-Dimethylaminophenyl)ethenyl]-6,7,8,9-tetrahydro-5H-cyclohept[d]-imidazo[2,1-b]thiazol-3-methanol]
inhibition at 3.3 µM [7]: < 10%
inhibition at 10 µM [8]: 24%

Cc1ccc(S(=O)(=O)Nc2cccc(CCC(O)c3cnc4sc(C)c(C)n34)c2)cc1 (centres unmarked) [Example 31]
inhibition at 1.1 µM [11]: 15%
inhibition at 3.3 µM [12]: 68%
inhibition at 10 µM [13]: 98%

Cc1ccc(S(=O)(=O)Nc2cccc(/C=C/C(O)c3cnc4sc(C)c(C)n34)c2)cc1 (centres unmarked) [Example 32]
inhibition at 3.3 µM (3.3 μM (Table 9), read-out: PROTEASE INHIBITION): < 10%
inhibition at 10 µM (10 μM (Table 9), read-out: PROTEASE INHIBITION): 15%

Cc1ccc(S(=O)(=O)Nc2ccccc2CCC(O)c2cnc3sc(C)c(C)n23)cc1 (centres unmarked) [Example 33]
inhibition at 1.1 µM [11]: < 10%
inhibition at 3.3 µM [12]: 52%
inhibition at 10 µM [13]: 97%

OC(CCc1cccc(F)c1F)c1cnc2sc3c(n12)CCCCC3 (stereo not drawn) [Example 34, α-[2-(2,3-Difluorophenyl)ethyl]-6,7,8,9-tetrahydro-5H-cyclohept[d]imidazothiazol-3-methanol]
inhibition at 1.1 µM [9]: 58%
inhibition at 3.3 µM [10]: 99%

COc1ccc(CCC(O)c2cnc3sc4c(n23)CCCCC4)cc1 (stereo not drawn) [Example 35, α-[2-(4-methoxyphenyl)ethyl]-6,7,8,9-tetrahydro-5H-cyclohept-[d]imidazo[2,1-b]thiazol-3-methanol]
inhibition at 1.1 µM [9]: 63%
inhibition at 3.3 µM [10]: 81%

COc1ccc(/C=C/C(O)c2cnc3sc4c(n23)CCCCC4)cc1 (stereo not drawn) [Example 36, α-[2-(4-Methoxyphenyl)ethenyl]-6,7,8,9-tetrahydro-5H-cyclohept-[d]imidazo[2,1-b]thiazol-3-methanol]
inhibition at 1.1 µM [6]: 15%
inhibition at 3.3 µM [7]: 52%
inhibition at 10 µM [8]: 42%
